# From paper PMC7901646, “Pyrrolo[2′,3′:3,4]cyclohepta[1,2-d][1,2]oxazoles, a New Class of Antimitotic Agents Active against Multiple Malignant Cell Types” (Journal of Medicinal Chemistry, 2020)
# Columns and labels:
# six lymphoma cell lines = assay: MTT cell proliferation, all lymphoma cell lines; type: cell-based, human; details: 1 μM, 72 h, of the untreated cells
# Method: (§1) All compounds were further tested at the concentration of 1 μM on four cell lines derived from distinct lymphoma histotypes, plus two with secondary resistance to the PI3Kδ inhibitor idelalisib[51] or to the BTK inhibitor ibrutinib.[52] […] For comparison, the same experiments were conducted using compound 3, but the response to it was minimal, and thus it was not considered further.
# Established human cell lines derived from germinal center B-cell (GCB) (SU-DHL-10), activated B-cell (ABC) (HBL1) diffuse large B-cell lymphoma (DLBCL), mantle cell lymphoma (MCL) (MINO), splenic marginal zone lymphoma (SMZL) (parental VL51, VL51 idelalisib resistant clone, VL51 ibrutinib resistant clone) were cultured in culture RPMI-1640 media supplemented with fetal bovine serum (10%), penicillin–streptomycin–neomycin (∼5,000 units of penicillin, 5 mg of streptomycinm and 10 mg of neomycin/mL, Sigma), and L-glutamine (1%). Vincristine sulfate was purchased from Sigma-Aldrich. […]
# The antiproliferative activity of all compounds was assessed by using the 3-(4.5-dimethylthiazolyl-2)-2,5-diphenyltetrazolium bromide (MTT) test. […] Wells containing medium only were included on each plate and served as blanks for absorbance readings. […] Cells were then lysed with 25% sodium dodecyl sulfate lysis buffer, and absorbance was read at 570 nm using a Beckman Coulter-AD340 plate reader.
# HBL1 (ABC DLBCL) = assay: MTT cell proliferation, lymphoma; type: cell-based; details: Homo sapiens, 72 h; for activity at 1 µM: of untreated cells, read-out: Proliferating cells (%)
# Method: as §1
# (§2) Established human cell lines derived from germinal center B-cell (GCB) (SU-DHL-10), activated B-cell (ABC) (HBL1) diffuse large B-cell lymphoma (DLBCL), mantle cell lymphoma (MCL) (MINO), splenic marginal zone lymphoma (SMZL) (parental VL51, VL51 idelalisib resistant clone, VL51 ibrutinib resistant clone) were cultured in culture RPMI-1640 media supplemented with fetal bovine serum (10%), penicillin–streptomycin–neomycin (∼5,000 units of penicillin, 5 mg of streptomycinm and 10 mg of neomycin/mL, Sigma), and L-glutamine (1%). Vincristine sulfate was purchased from Sigma-Aldrich. Cell line identities were confirmed by CellCheck test (IDEXX, BioResearch, Ludwigsburg, Germany). All compounds were dissolved in dimethyl sulfoxide to obtain a stock concentration of 10 mM.
# (§3) The antiproliferative activity of all compounds was assessed by using the 3-(4.5-dimethylthiazolyl-2)-2,5-diphenyltetrazolium bromide (MTT) test. Cells were seeded in 96-well plates (nontissue culture treated) at a density of 1 × 10^5 cells/mL and treated with a single concentration of 1 μM for 72 h. […] In this case, cells were treated in triplicate with serially diluted compounds in the appropriate tissue culture medium at a range of 40–10 000 nM. Cells were incubated for 72 h at 37 °C, 5% CO2. Wells containing medium only were included on each plate and served as blanks for absorbance readings. MTT (Sigma, Buchs, Switzerland) was prepared as a 5 mg/mL stock solution in phosphate buffered saline (PBS) and filter-sterilized. MTT solution (22 μL) was added to each well, and tissue culture plates were incubated at 37 °C for 4 h. Cells were then lysed with 25% sodium dodecyl sulfate lysis buffer, and absorbance was read at 570 nm using a Beckman Coulter-AD340 plate reader.
# SU-DHL-10 (GCB DLBCL) = assay: MTT cell proliferation, lymphoma; type: cell-based; details: Homo sapiens, SU-DHL10, 72 h; for activity at 1 µM: of untreated cells, read-out: Proliferating cells (%)
# Method: as §1, §2, §3
# VL51 (MZL) = assay: MTT cell proliferation, lymphoma; type: cell-based; details: Homo sapiens, 72 h; for activity at 1 µM: of untreated cells, read-out: Proliferating cells (%)
# Method: as §1, §2, §3
# [1] = tested on: VL51 idelalisib-resistant; assay: MTT cell proliferation, lymphoma; type: cell-based; details: Homo sapiens, 72 h, of untreated cells, read-out: Proliferating cells (%)
# Method: as §1, §2, §3
# VL51 ibrutinib-resistant = assay: MTT cell proliferation, lymphoma; type: cell-based; details: Homo sapiens, 72 h, of untreated cells, read-out: Proliferating cells (%)
# Method: as §1, §2, §3
# MINO (MCL) = assay: MTT cell proliferation, lymphoma; type: cell-based; details: Homo sapiens, 72 h; for activity at 1 µM: of untreated cells, read-out: Proliferating cells (%)
# Method: as §1, §2, §3
# bovine brain tubulin = bovine brain tubulin (Bos taurus, UniProt P81947+Q6B856); assay: Inhibition of tubulin assembly (turbidimetry); type: biochemical; details: 9 μM (0.9 mg/mL) tubulin, 20 min at 30 °C; read-out: inhibition of tubulin assembly IC50 ± SD
# [2] = tested on: NCI-60 panel of human cancer cell lines; set-up: method as in earlier work; details: full NCI panel, ref 42−45, cited from earlier work
# [3] = tested on: human peripheral blood lymphocytes not stimulated with PHA; assay: Cytotoxicity in resting PBLs (MTT); type: cell-based; details: Lymphocyte, 72 h, mean ± SEM, three experiments, read-out: GI50 PBLresting
# Method: (§4) PBLs were obtained from human peripheral blood (leucocyte rich plasma-buffy coats) from healthy volunteers using the Lymphoprep (Fresenius KABI Norge AS) gradient density centrifugation.
# (§5) After extensive washing, cells were resuspended (1.0 × 10^6 cells/mL) in RPMI-1640 with 10% fetal bovine serum and incubated overnight. For cytotoxicity evaluations in proliferating PBL cultures, nonadherent cells were resuspended at 5 × 10^5 cells/mL in growth medium, containing 2.5 μg/mL PHA (Irvine Scientific). Different concentrations of the test compounds were added, and viability was determined 72 h later by the MTT test. For cytotoxicity evaluations in resting PBL cultures, nonadherent cells were resuspended (5 × 10^5 cells/mL) and treated for 72 h with the test compounds.
# [4] = tested on: human peripheral blood lymphocytes stimulated with PHA; assay: Cytotoxicity in PHA-stimulated PBLs (MTT); type: cell-based; details: Lymphocyte, 72 h, mean ± SEM, three experiments, read-out: GI50 PBLPHA
# Method: as §4, §5
# tubulin colchicine site = tubulin colchicine site (Bos taurus, UniProt P81947+Q6B856); assay: Inhibition of [3H]colchicine binding to tubulin; details: read-out: inhibition of colchicine binding % inhibition ± SD
# Method: Reaction mixtures in the assembly assay contained 9 μM (0.9 mg/mL) tubulin in the assembly assay, and in the colchicine assay they contained 0.5 μM tubulin, 5.0 μM [^3H]colchicine, and 5.0 μM inhibitor.
# Analysis of effects on tubulin polymerization was performed by turbidimetry at 350 nm in recording spectrophotometers equipped with electronic temperature controllers as described in detail elsewhere.[71] […] The binding of [^3H]colchicine to tubulin was perfomed as described in detail previously[72] except that the tubulin concentration was reduced from 0.1 mg/mL to 0.05 mg/mL and only one, instead of two, DEAE-cellulose filter was used for each reaction mixture.
# tumor growth = tested on: tumor growth; set-up: method as in PMID 17915194, PMID 21215627; details: in vivo models, dose of 50–100 mg/kg; cited from earlier work
# bovine brain tubulin, sequence (Q6B856 whole entry): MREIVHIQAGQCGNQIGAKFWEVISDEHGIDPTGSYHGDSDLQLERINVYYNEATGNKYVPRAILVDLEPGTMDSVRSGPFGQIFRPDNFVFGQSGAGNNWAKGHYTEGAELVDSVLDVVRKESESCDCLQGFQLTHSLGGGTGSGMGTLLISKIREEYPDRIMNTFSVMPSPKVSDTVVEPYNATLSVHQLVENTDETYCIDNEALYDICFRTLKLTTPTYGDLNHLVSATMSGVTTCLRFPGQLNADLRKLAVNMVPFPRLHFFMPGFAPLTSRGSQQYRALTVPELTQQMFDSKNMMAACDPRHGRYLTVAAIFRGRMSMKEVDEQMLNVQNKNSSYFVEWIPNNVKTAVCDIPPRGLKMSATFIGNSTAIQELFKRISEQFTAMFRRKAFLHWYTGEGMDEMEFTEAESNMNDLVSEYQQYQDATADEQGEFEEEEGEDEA
# bovine brain tubulin, sequence (P81947 whole entry): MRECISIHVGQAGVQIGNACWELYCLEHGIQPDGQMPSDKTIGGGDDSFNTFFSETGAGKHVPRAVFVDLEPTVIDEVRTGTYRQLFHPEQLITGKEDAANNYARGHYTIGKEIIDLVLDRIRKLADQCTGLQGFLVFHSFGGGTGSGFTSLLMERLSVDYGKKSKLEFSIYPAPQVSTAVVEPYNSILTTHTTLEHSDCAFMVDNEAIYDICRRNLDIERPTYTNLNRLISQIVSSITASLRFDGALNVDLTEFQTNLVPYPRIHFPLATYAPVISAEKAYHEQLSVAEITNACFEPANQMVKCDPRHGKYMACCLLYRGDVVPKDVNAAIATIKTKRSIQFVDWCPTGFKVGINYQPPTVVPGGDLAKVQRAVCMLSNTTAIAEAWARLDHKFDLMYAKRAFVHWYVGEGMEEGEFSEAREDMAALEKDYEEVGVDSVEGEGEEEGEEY
# tubulin colchicine site, sequence (Q6B856 whole entry): as the sequence (Q6B856 whole entry) above
# tubulin colchicine site, sequence (P81947 whole entry): as the sequence (P81947 whole entry) above
Structure (SMILES),activity at 1 µM (HBL1 (ABC DLBCL)) [%],activity at 1 µM (SU-DHL-10 (GCB DLBCL)) [%],activity at 1 µM (VL51 (MZL)) [%],activity at 1 µM [1] [%],activity at 1 µM (VL51 ibrutinib-resistant) [%],activity at 1 µM (MINO (MCL)) [%],IC50 (bovine brain tubulin) [nM],other results
"CCOC(=O)c1cc2c(n1Cc1cc(OC)cc(OC)c1)-c1oncc1CC2 [Compound 3, ethyl 8-(3,5-dimethoxybenzyl)-5,8-dihydro-4H-[1,2]oxazolo[4,5-g]indole-7-carboxylate, reference compound]",95.6,80,93.5,107,123,94.5,9200 ± 400,"percentage of proliferating cells, all tested cell lines (six lymphoma cell lines): minimal; MG_MID (mean graph midpoint) [2]: 0.25 µM; GI50 ([2]; read-out: GI50 range): 30 to 31100 nM"
"CC[C@]1(O)C[C@H]2CN(CCc3c([nH]c4ccccc34)[C@@](C(=O)OC)(c3cc4c(cc3OC)N(C=O)[C@H]3[C@@](O)(C(=O)OC)[C@H](OC(C)=O)[C@]5(CC)C=CCN6CC[C@]43[C@@H]65)C2)C1 [vincristine, reference compound]",,,,,,,,GI50 [3]: 7500 ± 3100 nM; GI50 [4]: 1200 ± 600 nM
"COc1ccc(OC)c(Cn2ccc3c2-c2oncc2CCC3)c1 [Compound 57, 9-(2,5-Dimethoxybenzyl)-4,5,6,9-tetrahydropyrrolo[2′,3′:3,4]cyclohepta[1,2-d][1,2]oxazole]",29.6,11,36.5,34.3,37,8.5,3200 ± 60,IC50 (HBL1 (ABC DLBCL); MTT): 600 nM; IC50 (SU-DHL-10 (GCB DLBCL); MTT): 300 nM; IC50 (VL51 (MZL); MTT): 200 nM; IC50 (MINO (MCL); MTT): 400 nM; inhibition at 5 µM (tubulin colchicine site): 38 ± 0.7%
CCc1cc(-c2oncc2-c2ccc(OC)cc2)c(O)cc1OC [KRIBB3],,,,,,,,reduction of tumor growth (tumor growth): 50–70%
